Measured values published in patent publication US20220378773A1, “METHODS FOR TREATING LEUKEMIA AND USE OF A LEUKEMIC STEM CELL SIGNATURE TO PREDICT CLINICAL SENSITIVITY TO THERAPIES” (CELGENE CORPORATION, priority 2019, published 2022).

Test system: AML graft (human CD45+CD33+ cells)
Assay: AML xenograft efficacy, 2.5 mg/kg IP twice daily
Assay type: in vivo, NOD/SCID mice
Conditions: for In vivo Efficacy (% reduction) BM / In vivo Efficacy (% reduction) RF: AML cells vs vehicle; for Response: class by % reduction of AML cells in RF or BM
Text: Preparation of Test Article for Dosing: For in vivo Compound D dosing, Compound D was formulated immediately prior to each dose following the protocol below.
Formulation: 5% NMP/45% polyethylene glycol (PEG) 400/50% Saline; NMP—Catalogue no. 69118 (new no. M79603-1L), Fluka; PEG400—Catalogue no. 81172-1L, Fluka; Saline—0.9% sodium chloride.
Preparation: Weigh the desired amount of compound in glass vial. Add NMP and vortex. Make sure that entire compound is wet. Add PEG400 and vortex until clear solution without particulates. Add saline slowly and mix thoroughly for about a minute with hand held homogenizer with disposable tip.
Compound Administration: Compound D is dosed via the intraperitoneal route. Vehicle and Compound D are dosed in a volume of 2.5 mL/kg for twice daily (BID) dosing (if testing once daily [QD] dosing, use a dose volume of 5 mL/kg). Recommend a twice daily protocol with a 3-hour separation between the doses.
Intrafemoral Transplantation: One day prior to transplantation, NOD/SCID mice were preconditioned by sublethally irradiating (275 cGy) followed by injection with anti-CD122 antibody (200 μg/mouse) to deplete residual host natural killer (NK) cells. On the day of transplantation, viably frozen AML bulk cells (see Section 6.2.1.2) were thawed, counted, and transplanted intrafemorally into the preconditioned mice at a dose of 5×10^6 cells/mouse in a total volume of 30 μL phosphate buffered saline.
Treatment and Assay Procedure: At Day 21 post AML transplantation, mice were randomly grouped and dosed with either Compound D at 2.5 mg/kg or vehicle (5% N-methyl-2-pyrrolidone [NMP]/45% polyethylene glycol [PEG] 400/50% saline), intraperitoneally twice daily in a dose volume of 50 μL for 4 weeks. All animals were euthanized at scheduled termination (1 day after the last treatment) and bone marrow was collected from the right femur (injected bone marrow) and the left femur and left and right tibia (non-injected bone marrow). Cells isolated from injected or non-injected bone marrow were analyzed by flow cytometry to assess AML engraftment, and were viably frozen for future secondary engraftment analysis.
Cells harvested from injected and non-injected bone marrow were stained with mouse anti human antibodies as indicated in Section 6.2.1.3. After staining, washed cells were run on an LSRII flow cytometer (BD, USA) with 10,000 to 20,000 events collected for each sample. Collected data were analyzed by FlowJo software (TreeStar, USA) to assess AML engraftment levels in different tissues as determined by the percentage of human CD45+CD33+ cells.
Immune-deficient NOD/SCID mice were sublethally irradiated (225cGy) and treated with anti-CD122 antibody to eradicate residual mouse NK cells the day before AML implantation. Primary AML cells from each patient were intrafemorally injected into the mouse right femur at the cell dose 5×10^6 per mouse, with 10 mice transplanted per sample. Compound D and vehicle treatment was initiated at day 21 post transplantation. Compound D was administered at 2.5 mg/kg, intraperitoneally (IP) twice a day at 3 hours apart for 4 weeks. Before each treatment, Compound D was freshly dissolved into the solution. Vehicle was the same solution without Compound D compound and given to the control-treated mice at same volume (50 μL/mouse) with the same therapeutic schedule as Compound D treatment. For each patient sample, each treated group had 5 mice.
After treatment finished, cells were harvested from both injected right femur (RF) and non-injected bone marrow (BM, including left femur, 2 tibias), and stained with human antibodies to assess the engraftment levels of AML. Antibodies used for staining included: Mouse anti-human CD45-APC, CD15-FITC, CD34-APC7, CD38-PC7 (BD Biosciences, USA), CD14-PE, CD33-PC5 (Beckman Coulter, USA), CD19-V450, CD19-AF700, CD11b-APC7, CD34-BV421 (BD Biosciences, USA), and propidium iodide (PI; Invitrogen, USA).

[1] = three samples with high LSC17 score

## O=C1CCC(N2Cc3cc(CNC(=O)C(F)(F)c4ccc(Cl)cc4)ccc3C2=O)C(=O)N1 (centres unmarked) [Compound D, 2-(4-chlorophenyl)-N-((2-(2,6-dioxopiperidin-3-yl)-1-oxoisoindolin-5-yl)methyl)-2,2-difluoroacetamide]
7 of the low LSC17 samples, more than 50% reduction
  response of samples with low LSC17 scores: responded very well
AML 100348 (low LSC17)
  human CD45+ leukemia graft in RF and BM: significant response
AML Patient 90668, 5 million cells per mouse
  paralyzation or death: did not rescue these mice from paralyzation or death
BM
  number of high LSC17 samples with more than 80% leukemia reduction, BM: 17
  number of samples with 50 to 75% reduction (group 2), BM: 6
  number of samples with >80% reduction (group 1), BM: 14
Patient 598
  In vivo Efficacy (% reduction) BM: 95%
  In vivo Efficacy (% reduction) RF: 46%
  Response: R (R = >60%)
Patient 90191
  In vivo Efficacy (% reduction) BM: −250%
  In vivo Efficacy (% reduction) RF: −21%
  Response: NR (NR = <30%)
Patient 100348
  In vivo Efficacy (% reduction) BM: 90%
  In vivo Efficacy (% reduction) RF: 86%
  Response: R (R = >60%)
Patient 110484
  In vivo Efficacy (% reduction) BM: 96%
  In vivo Efficacy (% reduction) RF: 73%
  Response: R (R = >60%)
Patient 110500
  In vivo Efficacy (% reduction) BM: 67%
  In vivo Efficacy (% reduction) RF: 72%
  Response: R (R = >60%)
Patient 110625
  In Vivo Efficacy (Primary Mice) % AML cell reduction relative to Veh, BM: 99.9%
  In Vivo Efficacy (Primary Mice) % AML cell reduction relative to Veh, RE: 99.9%
Patient 120791
  In vivo Efficacy (% reduction) BM: 98%
  In vivo Efficacy (% reduction) RF: 69%
  Response: R (R = >60%)
Patient 120846
  In vivo Efficacy (% reduction) BM: 26%
  In vivo Efficacy (% reduction) RF: 9%
  Response: NR (NR = <30%)
Patient 120858
  In vivo Efficacy (% reduction) BM: 2%
  In vivo Efficacy (% reduction) RF: 0%
  Response: NR (NR = <30%)
Patient 120860
  percent and number of CD34+ primitive cells: not reduced
  In vivo Efficacy (% reduction) BM: 20%
  In vivo Efficacy (% reduction) RF: 1%
  Response: NR (NR = <30%)
Patient 120860 (low LSC17)
  numbers of AML cells, injected femur: did not reduce the numbers of AML cells
Patient 120860 (low LSC17), vs vehicle
  number of AML cells, non-injected BM: significantly reduced
Patient 120899
  In vivo Efficacy (% reduction) BM: 67%
  In vivo Efficacy (% reduction) RF: 13%
  Response: R (R = >60%)
Patient 121020
  In vivo Efficacy (% reduction) BM: 52%
  In vivo Efficacy (% reduction) RF: 42%
  Response: PR (PR = 30%-60%)
Patient 130311
  In Vivo Efficacy (Primary Mice) % AML cell reduction relative to Veh, BM: 99.6%
  In Vivo Efficacy (Primary Mice) % AML cell reduction relative to Veh, RE: 99.8%
Patient 130578
  In vivo Efficacy (% reduction) BM: 73%
  In vivo Efficacy (% reduction) RF: 61%
  Response: R (R = >60%)
Patient 130695
  In vivo Efficacy (% reduction) BM: 86%
  In vivo Efficacy (% reduction) RF: 52%
  Response: R (R = >60%)
Patient 130712
  In vivo Efficacy (% reduction) BM: 56%
  In vivo Efficacy (% reduction) RF: 17%
  Response: PR (PR = 30%-60%)
Patient 130826
  In Vivo Efficacy (Primary Mice) % AML cell reduction relative to Veh, BM: 98.1%
  In Vivo Efficacy (Primary Mice) % AML cell reduction relative to Veh, RE: 95.0%
Patient 130926
  In vivo Efficacy (% reduction) BM: 85%
  In vivo Efficacy (% reduction) RF: 70%
  Response: R (R = >60%)
Patient 140171
  In vivo Efficacy (% reduction) BM: 28%
  In vivo Efficacy (% reduction) RF: 4%
  Response: NR (NR = <30%)
Patient 150238
  In Vivo Efficacy (Primary Mice) % AML cell reduction relative to Veh, BM: 98.7%
  In Vivo Efficacy (Primary Mice) % AML cell reduction relative to Veh, RE: 95.2%
RF
  number of high LSC17 samples with more than 80% leukemia reduction, RF: 13
  number of samples with 50 to 75% reduction (group 2), RF: 10
  number of samples with >80% reduction (group 1), RF: Seventeen
  number of samples with less than 25% reduction (group 3), RF: 9
RF and BM
  response, secondary and relapsed vs de novo AML: responses similar to the cells from de novo AML patients
RF and BM, all samples
  samples considered responders or partial-responders: 29 out of 35 samples
Section 6.2.6, 4 weeks
  AML samples with significant effect: significant effects on 4 out of 5 AML samples
Section 6.3, 31 patient samples tested
  engrafted samples with significant and dramatic responses: 24 out of 28
Among 7 AML samples incl. 2 pilot samples
  responder samples: 5 samples were responders
Group 3
  samples that did not respond at all, injected RF: 4 out of 9
  samples with no AML reduction, BM: 3 out of 6
mouse, in vivo
  response, Flt3-ITD vs wild-type Flt3 in cytogenetically normal AML: slightly less response to Compound D in injected RF but similar response in BM
  response, abnormal vs normal karyotypes: better response
[1]
  AML cells in RF and BM: completely eradicated to undetectable levels
  absolute numbers of primitive CD34+ cells: very low and undetectable levels
